Patent publication US20230301968A1 (ZEPHAPHARM LTD, priority 2020, published 2023)

Columns and labels:
[1] = Metabolic stability in human liver microsomes with or without CYP1A2 inhibitor furafylline; conditions: human, microsomes
Method: (§1) The amount of test compound remaining at each time point was analysed by LC-MS/MS. An incubation in the absence of NADPH was also performed to assess non-CYP mediated stability.
(§2) In the pre-screen assay, […] 0.1 M phosphate buffer pH 7.4 (final substrate concentration 1 µM) were pre-incubated at 37° C. prior to the addition of NADPH (final concentration 1 mM) to initiate the reaction. A minus cofactor control incubation was included for each compound tested where 0.1 M phosphate buffer pH 7.4 was added instead of NADPH (minus NADPH). […] A minus cofactor control incubation was included for each compound tested where 0.1 M phosphate buffer pH 7.4 was added instead of cofactor (minus NADPH). […] The reactions were stopped by transferring an aliquot of incubate to acetonitrile at the appropriate time points, in a 1:3 ratio. The termination plates were centrifuged at 3,000 rpm for 20 min at 4° C. to precipitate the protein. Following protein precipitation, the sample supernatants were analysed using LC-MS/MS, along with internal standard (1:1 supernatant to internal standard).
(§3) From a plot of In peak area ratio (compound peak area/internal standard peak area) against time, the gradient of the line was determined. Subsequently, half-life and intrinsic clearance were calculated using the equations below: […]

[2] = tested on: human liver microsomes; assay: as above; conditions: 10 µM furafylline versus no inhibitor
Method: as §1, §2, §3

[3] = tested on: CYP1A2; assay: as above; conditions: human, microsomes; for microsomal CLint at 1 µM: pH 7.4, CLint
Method: as §1, §2, §3

[4] = biological target: T1, CYP2C8 (Homo sapiens, UniProt P10632); assay: Cytochrome P450 reaction phenotyping, recombinant CYP2C8; assay type: in vitro ADME; conditions: for t½: 1 µM substrate, recombinant CYP2C8, NADPH
T1 construct: purchased
T1 sequence (P10632 1-490): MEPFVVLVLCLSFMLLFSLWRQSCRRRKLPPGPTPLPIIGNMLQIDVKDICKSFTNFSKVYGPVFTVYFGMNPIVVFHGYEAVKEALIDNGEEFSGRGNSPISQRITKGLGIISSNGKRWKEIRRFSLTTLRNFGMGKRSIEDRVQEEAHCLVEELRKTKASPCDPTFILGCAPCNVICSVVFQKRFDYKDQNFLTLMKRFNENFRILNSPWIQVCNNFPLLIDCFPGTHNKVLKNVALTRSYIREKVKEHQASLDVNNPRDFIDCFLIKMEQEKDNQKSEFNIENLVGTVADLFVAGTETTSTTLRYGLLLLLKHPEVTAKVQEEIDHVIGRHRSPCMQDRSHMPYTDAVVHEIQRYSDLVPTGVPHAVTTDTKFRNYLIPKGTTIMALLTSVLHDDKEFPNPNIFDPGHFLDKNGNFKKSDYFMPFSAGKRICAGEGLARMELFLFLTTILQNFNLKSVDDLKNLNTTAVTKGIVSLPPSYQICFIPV
Method: (§4) The amount of test compound remaining at each time point was analysed by LC-MS/MS. Incubations in control recombinant enzymes were also performed to assess non-enzymatic mediated stability.
(§5) Incubations were also performed using control Bactosomes™ (no cytochrome P450 enzymes present) to reveal any non-enzymatic degradation. Control compounds known to be metabolised specifically by each P450 isoform were included. All incubations were performed singularly for each test compound. […] The reactions were stopped by transferring an aliquot of incubate to quench solvent at the appropriate time points, in a 1:3 ratio. The termination plates were centrifuged at 3,000 rpm for 20 min at 4° C. to precipitate the protein. Following protein precipitation, the sample supernatants were analysed using LC-MS/MS, along with internal standard (1:1 supernatant to internal standard).
(§6) Following correction for any loss in the incubations with the control Bactosomes™, from a plot of In peak area ratio (compound peak area/internal standard peak area) against time, the gradient of the line was determined. Subsequently, half-life (t½) was calculated using the equations below: […]

[5] = biological target: CYP2C9 (Homo sapiens, UniProt P11712); assay: Cytochrome P450 reaction phenotyping, recombinant CYP2C9; conditions: for t½: 1 µM substrate, recombinant CYP2C9, NADPH
Sequence of CYP2C9 (P11712 whole entry): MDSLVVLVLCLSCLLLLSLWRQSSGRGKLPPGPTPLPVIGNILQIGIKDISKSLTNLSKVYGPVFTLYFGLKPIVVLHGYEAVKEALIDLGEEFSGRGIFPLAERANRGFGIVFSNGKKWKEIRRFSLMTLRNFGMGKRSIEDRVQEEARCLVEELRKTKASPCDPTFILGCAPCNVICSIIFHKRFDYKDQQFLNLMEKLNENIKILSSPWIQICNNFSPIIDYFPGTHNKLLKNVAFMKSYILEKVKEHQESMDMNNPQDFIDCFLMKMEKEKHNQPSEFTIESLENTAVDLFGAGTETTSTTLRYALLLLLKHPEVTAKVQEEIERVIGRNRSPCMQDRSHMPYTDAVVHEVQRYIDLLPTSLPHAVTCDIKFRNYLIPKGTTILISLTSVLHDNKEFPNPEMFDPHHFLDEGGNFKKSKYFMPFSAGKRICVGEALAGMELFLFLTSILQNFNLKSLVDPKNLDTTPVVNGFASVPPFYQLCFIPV
Method: as §4, §5, §6

[6] = biological target: T2, CYP2C19 (Homo sapiens, UniProt P33261); assay: Cytochrome P450 reaction phenotyping, recombinant CYP2C19; assay type: in vitro ADME; conditions: for t½: 1 µM substrate, recombinant CYP2C19, NADPH
T2 construct: purchased
T2 sequence (P33261 whole entry): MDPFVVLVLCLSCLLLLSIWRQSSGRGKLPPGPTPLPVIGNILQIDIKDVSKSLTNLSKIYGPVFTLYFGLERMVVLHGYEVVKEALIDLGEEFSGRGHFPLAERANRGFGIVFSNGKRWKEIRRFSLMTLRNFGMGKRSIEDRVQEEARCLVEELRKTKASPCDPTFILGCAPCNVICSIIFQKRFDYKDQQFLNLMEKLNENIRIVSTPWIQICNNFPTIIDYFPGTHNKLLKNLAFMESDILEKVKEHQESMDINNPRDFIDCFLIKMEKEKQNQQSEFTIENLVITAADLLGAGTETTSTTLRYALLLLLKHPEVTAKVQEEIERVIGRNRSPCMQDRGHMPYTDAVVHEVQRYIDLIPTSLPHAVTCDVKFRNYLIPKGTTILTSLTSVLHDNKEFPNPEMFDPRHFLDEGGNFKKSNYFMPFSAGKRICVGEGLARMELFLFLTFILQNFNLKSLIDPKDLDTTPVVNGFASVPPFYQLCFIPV
Method: as §4, §5, §6

[7] = Stability in human cryopreserved hepatocytes with or without CYP1A2 inhibitors (assays 1 to 3); conditions: human, hepatocytes; for half-life at 1 µM: t½
Method: (§7) In each assay, the amount of test compound remaining at each time point was analysed by LC-MS/MS.
(§8) The final incubation volume was 500 µL. […] A positive control compound, ethoxycoumarin, for CYP1A2 (as CYP1A2 substrate) was included. […] The reactions were stopped by transferring 50 µL of incubate to 100 µL acetonitrile containing internal standard at the appropriate time points (0, 5, 10, 20, 40 and 60 min). The termination plates were centrifuged at 2500 rpm at 4° C. for 30 min to precipitate the protein.
(§9) From a plot of In peak area ratio (compound peak area/internal standard peak area) against time, the gradient of the line was determined. Subsequently, half-life (t½) and intrinsic clearance (CLint) were calculated using the equations below: […]

[8] = tested on: CYP1A2; assay: as above; conditions: human, hepatocytes; for half-life at 1 µM: t½
Method: as §7, §8, §9

For `COC(=O)Nc1nc2cc(C(=O)c3ccc(F)cc3)ccc2[nH]1` [Flubendazole, methyl N-[6-(4-fluorobenzoyl)-1H-benzimidazol-2-yl]carbamate], which microsomal CLint at 1 µM ([1]; pH 7.4, CLint, 1 µM substrate, no inhibitor) is on record?
The microsomal CLint at 1 µM was 50.3 µL/min/mg.

What about the microsomal CLint at 1 µM ([1]; pH 7.4, intrinsic clearance (CLint), pre-screen assay, absence of inhibitor) of the same molecule?
The microsomal CLint at 1 µM was 43.7 µL/min/mg.

And the half-life at 1 µM ([1]; pH 7.4, t½, 1 µM substrate, no inhibitor)?
The half-life at 1 µM was 27.6 min.

What about the increase in half-life [2] of the same molecule?
Its increase in half-life is greater than 14 times.

And the microsomal CLint at 1 µM ([3]; 1 µM substrate, plus 3 µM furafylline)?
The microsomal CLint at 1 µM was 14.6 µL/min/mg.

What about the microsomal CLint at 1 µM ([3]; 1 µM substrate, plus 10 µM furafylline) of the same molecule?
The microsomal CLint at 1 µM was 3.52 µL/min/mg.

And the microsomal CLint at 1 µM ([3]; 1 µM substrate, plus 30 µM furafylline)?
The microsomal CLint at 1 µM was 5.39 µL/min/mg.

And the half-life at 1 µM ([3]; pH 7.4, half-life, 1 µM flubendazole, 10 µM furafylline)?
Its half-life at 1 µM is 396 min.

And the half-life at 1 µM ([3]; pH 7.4, t½, 1 µM substrate, plus 3 µM furafylline)?
Its half-life at 1 µM is 95.1 min.

What about the half-life at 1 µM ([3]; pH 7.4, t½, 1 µM substrate, plus 10 µM furafylline) of the same molecule?
Its half-life at 1 µM is 394 min.

What about the half-life at 1 µM ([3]; pH 7.4, t½, 1 µM substrate, plus 30 µM furafylline) of the same molecule?
Its half-life at 1 µM is 257 min.

And the t½ [4]?
Its t½ is 690 min.

What about the t½ ([4]; listed as flubendazole) of the same molecule?
Its t½ is no less than 147 min.

And the “Compound Remaining (% of 0 min)” value ([4]; CYP2C8, 0 min)?
Its value is 100%.

And the “Compound Remaining (% of 0 min)” value ([4]; CYP2C8, 5 min)?
Its value is 100%.

And the “Compound Remaining (% of 0 min)” value ([4]; CYP2C8, 30 min)?
The value was 99.4%.

And the “Compound Remaining (% of 0 min)” value ([4]; CYP2C8, 45 min)?
Its value is 95.3%.

What about the t½ [5] of the same molecule?
Its t½ is 5720 min.

And the t½ ([5]; listed as flubendazole)?
Its t½ is no less than 147 min.

What about the “Compound Remaining (% of 0 min)” value ([5]; CYP2C9, 0 min) of the same molecule?
Its value is 100%.

What about the “Compound Remaining (% of 0 min)” value ([5]; CYP2C9, 5 min) of the same molecule?
Its value is 97.4%.

And the “Compound Remaining (% of 0 min)” value ([5]; CYP2C9, 15 min)?
The value was 101%.

And the “Compound Remaining (% of 0 min)” value ([5]; CYP2C9, 30 min)?
Its value is 97.9%.

And the “Compound Remaining (% of 0 min)” value ([5]; CYP2C9, 45 min)?
The value was 99.0%.

And the t½ [6]?
The t½ was 815 min.

And the t½ ([6]; listed as flubendazole)?
Its t½ is no less than 147 min.

What about the “Compound Remaining (% of 0 min)” value ([6]; CYP2C19, 0 min) of the same molecule?
The value was 100%.

What about the “Compound Remaining (% of 0 min)” value ([6]; CYP2C19, 5 min) of the same molecule?
Its value is 99.5%.

And the “Compound Remaining (% of 0 min)” value ([6]; CYP2C19, 15 min)?
The value was 97.7%.

What about the “Compound Remaining (% of 0 min)” value ([6]; CYP2C19, 30 min) of the same molecule?
Its value is 98.8%.

And the “Compound Remaining (% of 0 min)” value ([6]; CYP2C19, 45 min)?
The value was 95.5%.

And the hepatocyte CLint at 1 µM ([7]; CLint, assay 2, no inhibitor)?
The hepatocyte CLint at 1 µM was 8.62 ± 2.23 µL/min/1e6 cells.

And the hepatocyte CLint at 1 µM ([7]; CLint, assay 3, no inhibitor)?
Its hepatocyte CLint at 1 µM is 16.7 ± 2.06 µL/min/1e6 cells.

What about the hepatocyte CLint at 1 µM ([7]; intrinsic clearance, assay 1 (pre-screening assay), no inhibitor) of the same molecule?
The hepatocyte CLint at 1 µM was 15.2 ± 1.09 µL/min/1e6 cells.

And the half-life at 1 µM ([7]; assay 2, no inhibitor)?
Its half-life at 1 µM is 161 min.

What about the half-life at 1 µM ([7]; assay 3, no inhibitor) of the same molecule?
Its half-life at 1 µM is 82.8 min.

What about the hepatocyte CLint at 1 µM ([8]; assay 2, fluvoxamine 10 µM) of the same molecule?
Its hepatocyte CLint at 1 µM is 3.95 ± 0.941 µL/min/1e6 cells.

And the hepatocyte CLint at 1 µM ([8]; assay 2, furafylline 1 µM)?
The hepatocyte CLint at 1 µM was 2.05 ± 2.04 µL/min/1e6 cells.

And the hepatocyte CLint at 1 µM ([8]; assay 2, furafylline 3 µM)?
The hepatocyte CLint at 1 µM was 1.7 ± 0.885 µL/min/1e6 cells.

What about the hepatocyte CLint at 1 µM ([8]; assay 2, thiabendazole 10 µM) of the same molecule?
The hepatocyte CLint at 1 µM was 2.96 ± 1.17 µL/min/1e6 cells.

What about the hepatocyte CLint at 1 µM ([8]; assay 3, cimetidine 10 µM) of the same molecule?
Its hepatocyte CLint at 1 µM is 5.43 ± 1.9 µL/min/1e6 cells.

What about the hepatocyte CLint at 1 µM ([8]; assay 3, cimetidine 100 µM) of the same molecule?
The hepatocyte CLint at 1 µM was 10.9 ± 1.27 µL/min/1e6 cells.

What about the hepatocyte CLint at 1 µM ([8]; assay 3, cimetidine 300 µM) of the same molecule?
Its hepatocyte CLint at 1 µM is 9.19 ± 1.7 µL/min/1e6 cells.

And the hepatocyte CLint at 1 µM ([8]; assay 3, mexiletine 10 µM)?
The hepatocyte CLint at 1 µM was 0.861 ± 0.522 µL/min/1e6 cells.

What about the hepatocyte CLint at 1 µM ([8]; assay 3, mexiletine 300 µM) of the same molecule?
The hepatocyte CLint at 1 µM was 5.85 ± 1.25 µL/min/1e6 cells.

And the half-life at 1 µM ([8]; assay 2, fluvoxamine 10 µM)?
The half-life at 1 µM was 351 min.

What about the half-life at 1 µM ([8]; assay 2, furafylline 1 µM) of the same molecule?
Its half-life at 1 µM is 677 min.

And the half-life at 1 µM ([8]; assay 2, furafylline 3 µM)?
The half-life at 1 µM was 816 min.

What about the half-life at 1 µM ([8]; assay 2, thiabendazole 10 µM) of the same molecule?
The half-life at 1 µM was 468 min.

And the half-life at 1 µM ([8]; assay 3, cimetidine 10 µM)?
Its half-life at 1 µM is 255 min.

What about the half-life at 1 µM ([8]; assay 3, cimetidine 100 µM) of the same molecule?
The half-life at 1 µM was 128 min.

And the half-life at 1 µM ([8]; assay 3, cimetidine 300 µM)?
The half-life at 1 µM was 151 min.

And the half-life at 1 µM ([8]; assay 3, mexiletine 10 µM)?
The half-life at 1 µM was 1610 min.

And the half-life at 1 µM ([8]; assay 3, mexiletine 300 µM)?
The half-life at 1 µM was 237 min.
